Tested on: Leishmania (L. major)
Test: Leishmania protozoa proliferation inhibition assay
Assay type: cell-based
Settings: for OD level (number of viable Leishmania protozoa): 48 hours at 27° C., absorbance 450 nm minus 630 nm; for IC50: calculated from the graphs of FIGS. 1 to 4 (concentration vs number of viable leishmania protozoa), read-out: Concentration inhibiting 50% leishmania proliferation
Description: After dissolving each of the obtained compounds in dimethylsulfoxide (hereinafter referred to as DMSO), the resultant was diluted by 9 steps in Medium 199 medium (Invitrogen) to the indicated concentration, filtrated with a membrane filter, and each of the filtration was made as a sample solution. […] By keeping the solution at 27° C., incubation was performed under 5% CO2, for 48 hours. Then, TetraColor ONE (tradename: Seikagaku Corporation) reagent was added thereto and further incubated for 6 hours. Then, the absorbance at a wavelength of 450 nm was measured for the 96-well microtiter plate with a microplate reader, the wave length of 630 nm was made as reference wave length, and in order to exclude background effect, the absorbance at 630 nm was excluded from the one at 450 nm, and the OD level was calculated as a level to indicate the number of viable Leishmania protozoa. The assay was performed by three wells at a time for each concentration of each sample, and the mean level was made as OD level. […] Amphotericin B was used as positive control. […] Inhibiting effect against […] protozoa for each sample was similar or more compared with that of Amtephotericin B.

[1] = Table 3, sample concentration 0.001 mg/ml
[2] = Table 3, sample concentration 0.002165 mg/ml
[3] = Table 3, sample concentration 0.0072171 mg/ml
[4] = Table 3, sample concentration 0.02406 mg/ml
[5] = Table 3, sample concentration 0.08019 mg/ml
[6] = Table 3, sample concentration 0.2673 mg/ml
[7] = Table 3, sample concentration 0.891 mg/ml
[8] = Table 3, sample concentration 2.97 mg/ml
[9] = Table 3, sample concentration 9.9 mg/ml
[10] = Table 3, sample concentration 33 mg/ml
[11] = Table 1, sample concentration 0.001 mg/ml
[12] = Table 1, sample concentration 0.016384 mg/ml
[13] = Table 1, sample concentration 0.04096 mg/ml
[14] = Table 1, sample concentration 0.1024 mg/ml
[15] = Table 1, sample concentration 0.256 mg/ml
[16] = Table 1, sample concentration 0.64 mg/ml
[17] = Table 1, sample concentration 1.6 mg/ml
[18] = Table 1, sample concentration 4 mg/ml
[19] = Table 1, sample concentration 10 mg/ml
[20] = Table 1, sample concentration 25 mg/ml, mean of three wells
[21] = Table 2, sample concentration 0.0001 mg/ml
[22] = Table 2, sample concentration 0.0007 mg/ml
[23] = Table 2, sample concentration 0.002 mg/ml
[24] = Table 2, sample concentration 0.008 mg/ml
[25] = Table 2, sample concentration 0.025 mg/ml
[26] = Table 2, sample concentration 0.084 mg/ml
[27] = Table 2, sample concentration 0.279 mg/ml
[28] = Table 2, sample concentration 0.93 mg/ml
[29] = Table 2, sample concentration 3.1 mg/ml
[30] = Table 2, sample concentration 2E−04 mg/ml

What does the source list for `CN1C(=c2sc(=Cc3sc4ccccc4[n+]3C)n(CC3CCCO3)c2=O)Sc2ccccc21.Cc1ccc(S(=O)(=O)[O-])cc1` (stereo not drawn) [IV (k), 2-[{5-(3-methyl-2(3H)-benzothiazolylidene)-4-oxo-3-(2-tetrahydrofuranyl)methyl-2-thiazolidinylidene}methyl]-1-methylbenzothiazolium=p-toluenesulfonate]?
OD level (number of viable Leishmania protozoa) [1]: 0.338; OD level (number of viable Leishmania protozoa) [2]: 0.356; OD level (number of viable Leishmania protozoa) [3]: 0.344; OD level (number of viable Leishmania protozoa) [4]: 0.341; OD level (number of viable Leishmania protozoa) [5]: 0.351; OD level (number of viable Leishmania protozoa) [6]: 0.348; OD level (number of viable Leishmania protozoa) [7]: 0.371; OD level (number of viable Leishmania protozoa) [8]: 0.434; OD level (number of viable Leishmania protozoa) [9]: 0.154; OD level (number of viable Leishmania protozoa) [10]: 0.029; IC50: 2.6 µM

Which results are given for `CCN1C(=O)CS/C1=C\c1sc2ccccc2[n+]1CC` [V (b), 2-[(4-oxo-3-ethyl-2-thiazolidinylidene)methyl]-3-ethylbenzothiazolium=p-toluenesulfonate]?
OD level (number of viable Leishmania protozoa) [11]: 0.441; OD level (number of viable Leishmania protozoa) [12]: 0.458; OD level (number of viable Leishmania protozoa) [13]: 0.520; OD level (number of viable Leishmania protozoa) [14]: 0.533; OD level (number of viable Leishmania protozoa) [15]: 0.363; OD level (number of viable Leishmania protozoa) [16]: 0.145; OD level (number of viable Leishmania protozoa) [17]: 0.047; OD level (number of viable Leishmania protozoa) [18]: 0.040; OD level (number of viable Leishmania protozoa) [19]: 0.042; OD level (number of viable Leishmania protozoa) [20]: 0.056; IC50: 1.2 µM

`C=CCn1c(=Cc2cccc[n+]2C)sc(=C2Sc3ccccc3N2C)c1=O.Cc1ccc(S(=O)(=O)[O-])cc1` [IV (a), 2-[{5-(3-methyl-2(3H)-benzothiazolylidene)-4-oxo-3-(2-propenyl)-2-thiazolidinylidene}methyl]-1-methylpyridinium=p-toluenesulfonate] was tested. Which “OD level (number of viable Leishmania protozoa)” value (from here on “OD level”) [11] did it give?
Its value is 0.470.

And the “OD level” value [12]?
The value was 0.541.

And the “OD level” value [13]?
Its value is 0.488.

And the “OD level” value [14]?
The value was 0.385.

And the “OD level” value [15]?
The value was 0.157.

And the “OD level” value [16]?
Its value is 0.095.

What about the “OD level” value [17] of the same compound?
Its value is 0.047.

And the “OD level” value [18]?
Its value is 0.035.

What about the “OD level” value [19] of the same compound?
The value was 0.031.

And the “OD level” value [20]?
The value was 0.032.

What about the IC50 of the same compound?
The IC50 was 0.32 µM.

With `CCn1c(=Cc2sc3ccccc3[n+]2C)sc(=C2C=Cc3ccccc3N2C)c1=O.Cc1ccc(S(=O)(=O)[O-])cc1` [IV (d)] as the compound, how does the “OD level” value [1] read?
Its value is 0.346.

What about the “OD level” value [2] of the same compound?
Its value is 0.357.

What about the “OD level” value [3] of the same compound?
The value was 0.339.

What about the “OD level” value [4] of the same compound?
Its value is 0.341.

And the “OD level” value [5]?
The value was 0.359.

And the “OD level” value [6]?
The value was 0.348.

What about the “OD level” value [7] of the same compound?
Its value is 0.365.

What about the “OD level” value [8] of the same compound?
Its value is 0.395.

What about the “OD level” value [9] of the same compound?
The value was 0.344.

What about the “OD level” value [10] of the same compound?
The value was 0.035.

`CCn1c(=Cc2cccc[n+]2C)sc(=C2Sc3ccc(Cl)cc3N2C)c1=O.Cc1ccc(S(=O)(=O)[O-])cc1` [IV (f), 2-[{5-(5-chloro-3-methyl-2(3H)-benzothiazolylidene)-4-oxo-3-ethyl-2-thiazolidinylidene}methyl]-1-methylpyridinium=p-toluenesulfonate] was tested. Which “OD level” value [1] did it give?
The value was 0.352.

What about the “OD level” value [2] of the same compound?
The value was 0.388.

What about the “OD level” value [3] of the same compound?
The value was 0.369.

What about the “OD level” value [4] of the same compound?
The value was 0.384.

What about the “OD level” value [5] of the same compound?
The value was 0.428.

What about the “OD level” value [6] of the same compound?
The value was 0.214.

What about the “OD level” value [7] of the same compound?
Its value is 0.116.

And the “OD level” value [8]?
The value was 0.081.

What about the “OD level” value [9] of the same compound?
The value was 0.064.

What about the “OD level” value [10] of the same compound?
Its value is 0.038.

What about the IC50 of the same compound?
The IC50 was 0.54 µM.

`CCn1c(=Cc2sc3ccc4ccccc4c3[n+]2C)sc(=C2Sc3ccccc3N2C)c1=O.Cc1ccc(S(=O)(=O)[O-])cc1` [IV (g), 2-[{5-(3-methyl-2(3H)-benzothiazolylidene)-4-oxo-3-ethyl-2-thiazolidinylidene}methyl]-3-methylbenzo[e]benzothiazolium=p-toluenesulfonate] was tested. Which “OD level” value [21] did it give?
The value was 0.352.

And the “OD level” value [22]?
Its value is 0.368.

And the “OD level” value [23]?
Its value is 0.253.

And the “OD level” value [24]?
The value was 0.121.

What about the “OD level” value [25] of the same compound?
Its value is 0.055.

And the “OD level” value [26]?
The value was 0.032.

What about the “OD level” value [27] of the same compound?
The value was 0.030.

What about the “OD level” value [28] of the same compound?
Its value is 0.031.

What about the “OD level” value [29] of the same compound?
The value was 0.029.

And the “OD level” value [30]?
The value was 0.448.

What about the IC50 of the same compound?
The IC50 was 0.012 µM.

How did the “OD level” value [21] turn out when `CCn1c(=Cc2cc[n+](C)c3ccccc23)sc(=C2Sc3ccccc3N2C)c1=O.Cc1ccc(S(=O)(=O)[O-])cc1` [IV (b), 4-[{5-(3-methyl-2(3H)-benzothiazolylidene)-4-oxo-3-ethyl-2-thiazolidinylidene}methyl]-1-methylquinolium=p-toluene sulfonate] was run?
The value was 0.361.

And the “OD level” value [22]?
Its value is 0.354.

And the “OD level” value [23]?
Its value is 0.362.

What about the “OD level” value [24] of the same compound?
The value was 0.380.

And the “OD level” value [25]?
Its value is 0.409.

What about the “OD level” value [26] of the same compound?
Its value is 0.211.

And the “OD level” value [27]?
The value was 0.102.

What about the “OD level” value [28] of the same compound?
Its value is 0.044.

What about the “OD level” value [29] of the same compound?
Its value is 0.037.

What about the “OD level” value [30] of the same compound?
The value was 0.351.
